Test results from the supplement of paper PMC10627819.

Tests used:
[1] = test system: S. pneumoniae D39V; test: fitness (endpoint OD595 vs no drug) (fraction); higher = more growth
Method in brief: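 In 384-well plates at 37 °C, cultures began at OD595 0.01 in 30 µl, with 55 µl used for S. pneumoniae. OD595 readings every 30 min for 14 h were corrected by the first reading. Fitness divides the stationary-phase transition optical density by the robust mean of no-drug control wells. The result is capped at 1.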

[2] = test system: B. subtilis 168; test: Bliss interaction score (quartile over a dose matrix) (fitness difference); higher = more antagonism (negative = synergy)
Method in brief: (§1)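 Combination data were used to infer fitness under each single drug. Fitness is the OD595 at entry into stationary phase divided by the robust mean of the plate's no-drug wells, with a cap of 1. The Bliss score is the observed minus the expected product fitness, summarised by quartiles over technical, biological and donor/recipient replicates.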

[3] = test system: S. pneumoniae D39V; test: as above
Method in brief: as §1

[4] = test system: S. aureus DSM 20231; test: as above
Method in brief: as §1

[5] = test system: S. aureus Newman; test: as above
Method in brief: as §1
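Wherever Bliss interaction score (quartile over a dose matrix) is given: first quartile when negative (synergy) and third quartile when positive (antagonism).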

COc1cccc2c1C(=O)c1c(O)c3c(c(O)c1C2=O)C[C@@](O)(C(=O)CO)C[C@@H]3O[C@H]1C[C@H](N)[C@H](O)[C@H](C)O1 [Doxorubicin] + O=C1CN(/N=C/c2ccc([N+](=O)[O-])o2)C(=O)N1 [Nitrofurantoin]
fitness, [1]
Conditions	partner 1.285 µg/mL	partner 2 µg/mL	partner 2.57 µg/mL	partner 4 µg/mL	partner 8 µg/mL
first compound 0.25 µg/mL	0.935	0.918	0.91	0.857	0.465
first compound 0.5 µg/mL	0.925	0.946	0.94	0.795	0.436
first compound 1 µg/mL	0.825	0.814	0.809	0.721	0.405

[1], partner 5.14 µg/mL, one replicate
Conditions	fitness
first compound 0.25 µg/mL	0.822
first compound 0.5 µg/mL	0.858
first compound 1 µg/mL	0.695

Conditions	Bliss interaction score
[2]	-0.221
[3]	0.0747
[4]	-0.0576
[5]	-0.0388

CO/N=C(\C(=O)N[C@@H]1C(=O)N2C(C(=O)O)=C(COC(C)=O)CS[C@H]12)c1csc(N)n1 [Cefotaxime] + Clc1ccc(COC(Cn2ccnc2)c2ccc(Cl)cc2Cl)c(Cl)c1 [Miconazole]
fitness, [1]
Conditions	partner 1.073 µg/mL	partner 1.25 µg/mL	partner 2.145 µg/mL	partner 2.5 µg/mL	partner 4.29 µg/mL	partner 5 µg/mL
first compound 0.0018 µg/mL	≥ 1	0.919	0.967	0.96	0.94	0.936
first compound 0.0035 µg/mL	≥ 1	0.866	0.907	0.9	0.866	0.911
first compound 0.007 µg/mL	0.797	0.749	–	0.789	0.613	0.796

Conditions	Bliss interaction score
[2]	0.104
[3]	-0.0628
[4]	-0.0534
[5]	0.0393

C[C@@H]1O[C@@H]1P(=O)(O)O [Fosfomycin] + CO[C@H]1/C=C/O[C@@]2(C)Oc3c(C)c(O)c4c(O)c(c(/C=N/N5CCN(C)CC5)c(O)c4c3C2=O)NC(=O)/C(C)=C\C=C\[C@H](C)[C@H](O)[C@@H](C)[C@@H](O)[C@@H](C)[C@H](OC(C)=O)[C@@H]1C [Rifampicin]
fitness, [1]
Conditions	first compound 1.25 µg/mL	first compound 2.5 µg/mL	first compound 5 µg/mL
partner 0.025 µg/mL	0.987	0.969	0.806
partner 0.05 µg/mL	0.986	–	–
partner 0.1 µg/mL	–	–	0.318

[1], partner 0.2 µg/mL, one replicate
Conditions	fitness
first compound 1.25 µg/mL	0
first compound 2.5 µg/mL	0
first compound 5 µg/mL	0

Conditions	Bliss interaction score
[2]	-0.0436
[3]	0.0822
[4]	0.036
[5]	0.0181

O=C(O)c1cn(C2CC2)c2cc(N3CCNCC3)c(F)cc2c1=O [Ciprofloxacin] + Clc1ccc(COC(Cn2ccnc2)c2ccc(Cl)cc2Cl)c(Cl)c1 [Miconazole]
fitness, [1]
Conditions	partner 1.073 µg/mL	partner 1.25 µg/mL	partner 2.145 µg/mL	partner 2.5 µg/mL	partner 4.29 µg/mL	partner 5 µg/mL
first compound 0.125 µg/mL	0.987	0.939	0.966	0.925	0.926	0.908
first compound 0.25 µg/mL	0.964	–	0.965	–	0.864	–
first compound 0.5 µg/mL	0.761	0.679	0.76	–	0.821	0.646

[1], first compound 0.25 µg/mL, one replicate
Conditions	fitness
partner 1.25 µg/mL	0.821
partner 2.5 µg/mL	0.697
partner 5 µg/mL	0.721

Conditions	Bliss interaction score
[2]	-0.0762
[3]	0.0741
[4]	0.0295
[5]	0.0815

C[C@@H]1O[C@@H]1P(=O)(O)O [Fosfomycin] + Clc1ccc(COC(Cn2ccnc2)c2ccc(Cl)cc2Cl)c(Cl)c1 [Miconazole]
fitness, [1]
Conditions	partner 1.073 µg/mL	partner 1.25 µg/mL	partner 2.145 µg/mL	partner 2.5 µg/mL	partner 4.29 µg/mL	partner 5 µg/mL
first compound 1.25 µg/mL	0.988	0.946	0.967	0.946	0.879	0.968
first compound 2.5 µg/mL	0.926	0.905	0.879	0.933	0.789	0.929
first compound 5 µg/mL	0.758	0.769	0.7	0.753	0.678	0.776

Conditions	Bliss interaction score
[2]	-0.0714
[3]	0.0499
[4]	0.0796
[5]	0.103

C[C@H]1c2cccc(O)c2C(=O)C2=C(O)[C@]3(O)C(=O)C(C(N)=O)=C(O)[C@@H](N(C)C)[C@@H]3[C@@H](O)[C@@H]21 [Doxycycline] + Cn1nnc(-c2ccc(-c3ccc(N4C[C@H](CO)OC4=O)cc3F)cn2)n1 [Tedizolid]
fitness, [1], one replicate
Conditions	first compound 0.003875 µg/mL	first compound 0.00775 µg/mL	first compound 0.031 µg/mL	first compound 0.062 µg/mL
partner 0.125 µg/mL	0.847	0.848	–	–
partner 0.25 µg/mL	0.765	0.759	0.709	0.56
partner 0.5 µg/mL	0.411	0.438	0.301	0.203

fitness, [1]
Conditions	partner 0.03125 µg/mL	partner 0.0625 µg/mL	partner 0.125 µg/mL	partner 0.25 µg/mL	partner 0.5 µg/mL
first compound 0.0155 µg/mL	0.91	0.913	0.832	0.801	0.456
first compound 0.031 µg/mL	0.957	0.9	0.768	–	–
first compound 0.062 µg/mL	0.92	0.905	0.826	–	–

Conditions	Bliss interaction score
[2]	-0.0653
[3]	0.055
[4]	-0.0283
[5]	-0.0152

Cc1ncc([N+](=O)[O-])n1CCO [Metronidazole] + O=C1CN(/N=C/c2ccc([N+](=O)[O-])o2)C(=O)N1 [Nitrofurantoin]
fitness, [1]
Conditions	first compound 1.073 µg/mL	first compound 1.25 µg/mL	first compound 2.145 µg/mL	first compound 2.5 µg/mL	first compound 4.29 µg/mL	first compound 5 µg/mL
partner 1.285 µg/mL	–	0.954	–	0.983	–	0.948
partner 2 µg/mL	0.93	–	0.945	–	0.89	–
partner 2.57 µg/mL	–	0.95	–	0.948	–	0.965
partner 4 µg/mL	0.929	–	0.919	–	0.902	–
partner 8 µg/mL	0.774	–	0.805	–	0.751	–

[1], partner 5.14 µg/mL, one replicate
Conditions	fitness
first compound 1.25 µg/mL	0.936
first compound 2.5 µg/mL	0.973
first compound 5 µg/mL	0.989

Conditions	Bliss interaction score
[2]	0.0755
[3]	0.0483
[4]	0.0482
[5]	-0.0503

COc1ccc(C[C@H](N)C(=O)N[C@H]2[C@@H](O)[C@H](n3cnc4c(N(C)C)ncnc43)O[C@@H]2CO)cc1 [Puromycin] + CO[C@H]1/C=C/O[C@@]2(C)Oc3c(C)c(O)c4c(O)c(c(/C=N/N5CCN(C)CC5)c(O)c4c3C2=O)NC(=O)/C(C)=C\C=C\[C@H](C)[C@H](O)[C@@H](C)[C@@H](O)[C@@H](C)[C@H](OC(C)=O)[C@@H]1C [Rifampicin]
[1], partner 0.025 µg/mL, one replicate
Conditions	fitness
first compound 1 µg/mL	0.914
first compound 2 µg/mL	0.856
first compound 4 µg/mL	0.691

fitness, [1]
Conditions	first compound 1 µg/mL	first compound 2 µg/mL	first compound 4 µg/mL
partner 0.05 µg/mL	0.747	0.753	–
partner 0.2 µg/mL	0.135	0.0783	0.0597

Conditions	Bliss interaction score
[2]	0.0301
[3]	-0.0708
[4]	0.0391
[5]	0.0233

C[C@H]1c2cccc(O)c2C(=O)C2=C(O)[C@]3(O)C(=O)C(C(N)=O)=C(O)[C@@H](N(C)C)[C@@H]3[C@@H](O)[C@@H]21 [Doxycycline] + C/C(=C\C(=O)OCCCCCCCCC(=O)O)C[C@@H]1OC[C@H](C[C@@H]2O[C@H]2[C@@H](C)[C@H](C)O)[C@@H](O)[C@H]1O [Pseudomonic acid]
fitness, [1], one replicate
Conditions	partner 0.03 µg/mL	partner 0.06 µg/mL	partner 0.12 µg/mL
first compound 0.003875 µg/mL	0.973	0.887	0.585
first compound 0.00775 µg/mL	0.943	0.839	0.614

fitness, [1]
Conditions	first compound 0.0155 µg/mL	first compound 0.031 µg/mL	first compound 0.062 µg/mL
partner 0.03 µg/mL	0.993	0.937	0.821
partner 0.06 µg/mL	0.878	0.845	0.857
partner 0.12 µg/mL	0.604	0.608	0.562

Conditions	Bliss interaction score
[2]	-0.0363
[3]	0.0875
[4]	-0.0104
[5]	-0.0168

O=C(O)c1cn(C2CC2)c2cc(N3CCNCC3)c(F)cc2c1=O [Ciprofloxacin] + O=C1CN(/N=C/c2ccc([N+](=O)[O-])o2)C(=O)N1 [Nitrofurantoin]
fitness, [1]
Conditions	partner 1.285 µg/mL	partner 2 µg/mL	partner 2.57 µg/mL	partner 4 µg/mL	partner 8 µg/mL
first compound 0.125 µg/mL	0.921	0.914	0.932	0.906	0.692
first compound 0.25 µg/mL	0.895	–	0.903	–	–
first compound 0.5 µg/mL	0.704	–	0.72	–	0.437

fitness, [1], one replicate
Conditions	partner 2 µg/mL	partner 4 µg/mL	partner 5.14 µg/mL	partner 8 µg/mL
first compound 0.125 µg/mL	–	–	0.877	–
first compound 0.25 µg/mL	0.731	0.679	0.879	0.56
first compound 0.5 µg/mL	–	–	0.627	–

Conditions	Bliss interaction score
[2]	0.129
[3]	0.106
[4]	0.0292
[5]	-0.0569

CO/N=C(\C(=O)N[C@@H]1C(=O)N2C(C(=O)O)=C(COC(C)=O)CS[C@H]12)c1csc(N)n1 [Cefotaxime] + C[C@@H](O)[C@H]1C(=O)N2C(C(=O)O)=C(SCCNC=N)C[C@H]12 [Imipenem]
fitness, [1]
Conditions	partner 0.005 µg/mL	partner 0.0065 µg/mL	partner 0.01 µg/mL	partner 0.013 µg/mL	partner 0.02 µg/mL	partner 0.026 µg/mL
first compound 0.0018 µg/mL	0.966	0.976	0.937	≥ 1	0.932	0.973
first compound 0.0035 µg/mL	0.942	0.99	0.941	≥ 1	0.947	0.942
first compound 0.007 µg/mL	0.934	0.634	0.882	0.708	0.87	0.548

Conditions	Bliss interaction score
[2]	-0.116
[3]	0.0762
[4]	-0.0289
[5]	0.0648

C[C@@H]1O[C@@H]1P(=O)(O)O [Fosfomycin] + C[C@@H](O)[C@H]1C(=O)N2C(C(=O)O)=C(SCCNC=N)C[C@H]12 [Imipenem]
fitness, [1]
Conditions	partner 0.005 µg/mL	partner 0.0065 µg/mL	partner 0.01 µg/mL	partner 0.013 µg/mL	partner 0.02 µg/mL	partner 0.026 µg/mL
first compound 1.25 µg/mL	0.965	0.922	0.944	0.925	0.92	0.901
first compound 2.5 µg/mL	0.911	0.87	0.887	0.881	0.911	0.814
first compound 5 µg/mL	0.797	0.608	0.786	0.726	0.747	0.74

Conditions	Bliss interaction score
[2]	0.0674
[3]	0.0339
[4]	-0.0911
[5]	0.0199
